Laboratory results taken from ChEMBL document CHEMBL1158699, “Bioactive benzophenones from Garcinia xanthochymus fruits” (J Nat Prod, 2005).
Calls of active or inactive are those of the source. The rule behind the calls is not given here.

Legend:
SW480 = experiment: Cytotoxicity against human SW480 cells after 72 hrs by MTT assay; format: functional, cell-based; details: SW480, 72 h
[1] = tested on: Radical scavenging activity; experiment: Antioxidant activity assessed as DPPH radical scavenging activity; format: functional

Row | Structure (SMILES) | IC50 (SW480) [µM] | IC50 [1] [µM] | Activity [1]
1 | O=C1c2c(O)cc(O)cc2OC(c2ccc(O)cc2)C1c1c(O)cc(O)c2c(=O)cc(-c3ccc(O)c(O)c3)oc12 (racemic) | 89 | 62 | –
2 | COc1cc2c(=O)c3c(O)cc(O)cc3oc2cc1O [ALLOATHYRIOL] | 117 | – | inactive
3 | O=c1cc(-c2ccc(O)c(-c3c(O)cc(O)c4c(=O)cc(-c5ccc(O)cc5)oc34)c2)oc2cc(O)cc(O)c12 [AMENTOFLAVONE] | 111 | 184 | –
4 | O=c1c(-c2c(O)cc(O)c3c(=O)cc(-c4ccc(O)cc4)oc23)c(-c2ccc(O)cc2)oc2cc(O)cc(O)c12 | 185 | > 400 | –
5 | O=C1c2c(O)cc(O)cc2OC(c2ccc(O)cc2)C1c1c(O[C@@H]2O[C@H](CO)[C@@H](O)[C@H](O)[C@H]2O)cc(O)c2c(=O)cc(-c3ccc(O)c(O)c3)oc12 (mixture of isomers) | > 200 | 116 | –
